Laboratory results: patent US9695155B2, “Herbicidal substituted pyrimidinyloxy benzene compounds” (E. I. DU PONT DE NEMOURS AND COMPANY, priority 2013, dated 2017)

Columns and labels:
soybean = assay: Test C postemergence; type: in vivo, Glycine max; details: for Plant response rating, Soybean: Postemergence
In short: (§1)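 Seeds are planted in blended loam soil and sand and treated preemergence, while seedlings in a peat moss/vermiculite medium receive postemergence sprays at 2 to 18 cm height. All plants stay in the greenhouse for 13 to 15 days before visual comparison with controls on a 0–100 scale.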

velvetleaf [1] = assay: Test A preemergence; type: in vivo, Abutilon theophrasti
In short: (§2)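 Pre- and postemergence greenhouse screen. Soil: loam + sand. Spray carrier: solvent mixture, non-phytotoxic, with surfactant. Post timing at 1–2 leaves, height 2–10 cm. Readout: visual injury on a 0–100 scale roughly 10 days after application, untreated plants as reference.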

morningglory = assay: Test A postemergence; type: in vivo, Ipomoea spp.
In short: as §2

pigweed [2] = assay: Test C postemergence; type: in vivo, Amaranthus retroflexus; details: for Plant response rating, Pigweed: Postemergence
In short: as §1

pigweed [3] = assay: Test A postemergence; type: in vivo, Amaranthus retroflexus
In short: as §2

Italian ryegrass = assay: Test C postemergence; type: in vivo, Lolium multiflorum; details: for Plant response rating, Ryegrass, Italian: Postemergence
In short: as §1

waterhemp = assay: Test C postemergence; type: in vivo, Amaranthus rudis; details: for Plant response rating, Waterhemp: Postemergence
In short: as §1

johnsongrass = assay: Test C postemergence; type: in vivo, Sorghum halepense; details: for Plant response rating (0 to 100), Johnsongrass / Johnsongrass plant response rating: postemergence; for Johnsongrass plant response rating: visual rating; for Johnsongrass plant response rating / Plant response rating, Johnsongrass: scale 0 to 100 (0 no effect, 100 complete control); for Plant response rating, Johnsongrass: Postemergence
In short: as §1

barnyardgrass = assay: Test C postemergence; type: in vivo, Echinochloa crus-galli; details: for Plant response rating (0 to 100), Barnyardgrass / Barnyardgrass plant response rating: postemergence; for Barnyardgrass plant response rating: visual rating; for Barnyardgrass plant response rating / Plant response rating, Barnyardgrass: scale 0 to 100 (0 no effect, 100 complete control); for Plant response rating, Barnyardgrass: Postemergence
In short: as §1

large (Lg) crabgrass [4] = assay: Test A postemergence; type: in vivo, Digitaria sanguinalis
In short: as §2

velvetleaf [5] = assay: Test A postemergence; type: in vivo, Abutilon theophrasti
In short: as §2

corn [6] = assay: Test A postemergence; type: in vivo, Zea mays
In short: as §2

corn [7] = assay: Test C postemergence; type: in vivo, Zea mays; details: for Plant response rating (0 to 100), Corn / Corn plant response rating: postemergence; for Corn plant response rating: visual rating; for Corn plant response rating / Plant response rating, Corn: scale 0 to 100 (0 no effect, 100 complete control); for Plant response rating, Corn: Postemergence
In short: as §1

giant foxtail = assay: Test C postemergence; type: in vivo, Setaria faberii; details: for Plant response rating (0 to 100), Foxtail, Giant / Foxtail, Giant plant response rating: postemergence; for Foxtail, Giant plant response rating: visual rating; for Foxtail, Giant plant response rating / Plant response rating, Foxtail, Giant: scale 0 to 100 (0 no effect, 100 complete control); for Plant response rating, Foxtail, Giant: Postemergence
In short: as §1

pigweed [8] = assay: Test A preemergence; type: in vivo, Amaranthus retroflexus; details: for Pigweed plant response rating: 0 to 100 scale, 0 no effect, 100 complete control, approx. 10 days
In short: as §2

wild oat = assay: Test C postemergence; type: in vivo, Avena fatua; details: for Plant response rating, Oat, Wild: Postemergence
In short: as §1

kochia = assay: Test C postemergence; type: in vivo, Kochia scoparia; details: for Plant response rating (0 to 100), Kochia / Kochia plant response rating: postemergence; for Kochia plant response rating: visual rating; for Kochia plant response rating / Plant response rating, Kochia: scale 0 to 100 (0 no effect, 100 complete control); for Plant response rating, Kochia: Postemergence
In short: as §1

large (Lg) crabgrass [9] = assay: Test A preemergence; type: in vivo, Digitaria sanguinalis; details: for Crabgrass, Large plant response rating: 0 to 100 scale, 0 no effect, 100 complete control, approx. 10 days
In short: as §2

[10] = 8 g ai/ha, postemergence, 0 is no effect, 100 is complete control
[11] = 16 g ai/ha, postemergence, 0 is no effect, 100 is complete control
[12] = 31 g ai/ha, postemergence, visual rating, scale 0 to 100 (0 no effect, 100 complete control), 13 to 15 days
[13] = 62 g ai/ha, scale 0 to 100 (0 no effect, 100 complete control), 13 to 15 days
[14] = 1000 g ai/ha, 0 to 100 scale, 0 no effect, 100 complete control
[15] = 8 g ai/ha, 0 is no effect, 100 is complete control
[16] = 16 g ai/ha, 0 is no effect, 100 is complete control
[17] = 31 g ai/ha, scale 0 to 100 (0 no effect, 100 complete control), 13 to 15 days
[18] = 62 g ai/ha, scale 0 to 100 (0 no effect, 100 complete control)
[19] = 125 g ai/ha, 0 to 100 scale where 0 is no effect and 100 is complete control
[20] = 500 g ai/ha, 0 to 100 scale where 0 is no effect and 100 is complete control

Compound: Clc1cnc(Oc2ccccc2-n2cc(I)nn2)nc1 [Compound 222]
- Plant response rating (0 to 100), Soybean (soybean; [10]): 40
- Plant response rating (0 to 100), Soybean (soybean; [11]): 55
- Soybean plant response rating (soybean; [12]): 65
- Plant response rating, Soybean (soybean; [13]): 60
- Velvetleaf plant response rating (velvetleaf [1]; 1000 g ai/ha, 0 to 100 scale, 0 no effect, 100 complete control, approx. 10 days): 100
- Plant response rating, Morningglory (morningglory; [14]): 100
- Plant response rating (0 to 100), Pigweed (pigweed [2]; [10]): 65
- Plant response rating (0 to 100), Pigweed (pigweed [2]; [11]): 70
- Pigweed plant response rating (pigweed [2]; [12]): 80
- Plant response rating, Pigweed (pigweed [2]; [13]): 85
- Plant response rating, Pigweed (pigweed [3]; [14]): 100
- Plant response rating (0 to 100), Ryegrass, Italian (Italian ryegrass; [10]): 0
- Plant response rating (0 to 100), Ryegrass, Italian (Italian ryegrass; [11]): 0
- Ryegrass, Italian plant response rating (Italian ryegrass; [12]): 0
- Plant response rating, Ryegrass, Italian (Italian ryegrass; [13]): 0
- Plant response rating (0 to 100), Waterhemp (waterhemp; [10]): 60
- Plant response rating (0 to 100), Waterhemp (waterhemp; [11]): 70
- Waterhemp plant response rating (waterhemp; [12]): 90
- Plant response rating, Waterhemp (waterhemp; [13]): 90
- Plant response rating (0 to 100), Johnsongrass (johnsongrass; [15]): 0
- Plant response rating (0 to 100), Johnsongrass (johnsongrass; [16]): 0
- Johnsongrass plant response rating (johnsongrass; 31 g ai/ha, 13 to 15 days): 10
- Plant response rating, Johnsongrass (johnsongrass; 62 g ai/ha, 13 to 15 days): 10
- Plant response rating (0 to 100), Barnyardgrass (barnyardgrass; [15]): 5
- Plant response rating (0 to 100), Barnyardgrass (barnyardgrass; [16]): 5
- Barnyardgrass plant response rating (barnyardgrass; 31 g ai/ha, 13 to 15 days): 10
- Plant response rating, Barnyardgrass (barnyardgrass; 62 g ai/ha): 15
- Plant response rating, Crabgrass, Large (large (Lg) crabgrass [4]; [14]): 100
- Plant response rating, Velvetleaf (velvetleaf [5]; [14]): 100
- Plant response rating, Corn (corn [6]; [14]): 50
- Plant response rating (0 to 100), Corn (corn [7]; [15]): 0
- Plant response rating (0 to 100), Corn (corn [7]; [16]): 5
- Corn plant response rating (corn [7]; 31 g ai/ha, 13 to 15 days): 5
- Plant response rating, Corn (corn [7]; 62 g ai/ha, 13 to 15 days): 0
- Plant response rating (0 to 100), Foxtail, Giant (giant foxtail; [15]): 0
- Plant response rating (0 to 100), Foxtail, Giant (giant foxtail; [16]): 5
- Foxtail, Giant plant response rating (giant foxtail; 31 g ai/ha, 13 to 15 days): 5
- Plant response rating, Foxtail, Giant (giant foxtail; 62 g ai/ha, 13 to 15 days): 5
- Pigweed plant response rating (pigweed [8]; 1000 g ai/ha): 100
- Plant response rating (0 to 100), Oat, Wild (wild oat; [10]): 5
- Plant response rating (0 to 100), Oat, Wild (wild oat; [11]): 10
- Oat, Wild plant response rating (wild oat; [12]): 10
- Plant response rating, Oat, Wild (wild oat; [13]): 30
- Plant response rating (0 to 100), Kochia (kochia; [15]): 60
- Plant response rating (0 to 100), Kochia (kochia; [16]): 85
- Kochia plant response rating (kochia; 31 g ai/ha, 13 to 15 days): 100
- Plant response rating, Kochia (kochia; 62 g ai/ha, 13 to 15 days): 100
- Crabgrass, Large plant response rating (large (Lg) crabgrass [9]; 1000 g ai/ha): 100

Compound: Fc1cnc(Oc2cccc(C(F)F)c2-n2cc(Cl)cn2)nc1 [Compound 94]
- Plant response rating (0 to 100), Soybean (soybean; 125 g ai/ha, postemergence): 80
- Plant response rating, Soybean (soybean; [17]): 45
- Plant response rating, Soybean (soybean; [18]): 85
- Plant response rating, Velvetleaf (velvetleaf [1]; [19]): 90
- Plant response rating, Morningglory (morningglory; [19]): 80
- Plant response rating, Morningglory (morningglory; [20]): 100
- Plant response rating (0 to 100), Pigweed (pigweed [2]; 125 g ai/ha, postemergence): 85
- Plant response rating, Pigweed (pigweed [2]; [17]): 80
- Plant response rating, Pigweed (pigweed [2]; [18]): 80
- Plant response rating, Pigweed (pigweed [3]; [19]): 100
- Plant response rating, Pigweed (pigweed [3]; [20]): 100
- Plant response rating (0 to 100), Ryegrass, Italian (Italian ryegrass; 125 g ai/ha, postemergence): 5
- Plant response rating, Ryegrass, Italian (Italian ryegrass; [17]): 0
- Plant response rating, Ryegrass, Italian (Italian ryegrass; [18]): 0
- Plant response rating (0 to 100), Waterhemp (waterhemp; 125 g ai/ha, postemergence): 70
- Plant response rating, Waterhemp (waterhemp; [17]): 80
- Plant response rating, Waterhemp (waterhemp; [18]): 75
- Johnsongrass plant response rating (johnsongrass; 16 g ai/ha, 13 to 15 days): 5
- Plant response rating (0 to 100), Johnsongrass (johnsongrass; 125 g ai/ha): 5
- Plant response rating, Johnsongrass (johnsongrass; 31 g ai/ha, 13 to 15 days): 5
- Plant response rating, Johnsongrass (johnsongrass; 62 g ai/ha): 5
- Barnyardgrass plant response rating (barnyardgrass; 16 g ai/ha, 13 to 15 days): 10
- Plant response rating (0 to 100), Barnyardgrass (barnyardgrass; 125 g ai/ha): 10
- Plant response rating, Barnyardgrass (barnyardgrass; 31 g ai/ha, 13 to 15 days): 10
- Plant response rating, Barnyardgrass (barnyardgrass; 62 g ai/ha): 10
- Plant response rating, Crabgrass, Large (large (Lg) crabgrass [4]; [19]): 50
- Plant response rating, Crabgrass, Large (large (Lg) crabgrass [4]; [20]): 90
- Plant response rating, Velvetleaf (velvetleaf [5]; [19]): 90
- Plant response rating, Velvetleaf (velvetleaf [5]; [20]): 100
- Plant response rating, Corn (corn [6]; [19]): 30
- Plant response rating, Corn (corn [6]; [20]): 50
- Corn plant response rating (corn [7]; 16 g ai/ha, 13 to 15 days): 5
- Plant response rating (0 to 100), Corn (corn [7]; 125 g ai/ha): 5
- Plant response rating, Corn (corn [7]; 31 g ai/ha, 13 to 15 days): 5
- Plant response rating, Corn (corn [7]; 62 g ai/ha): 35
- Foxtail, Giant plant response rating (giant foxtail; 16 g ai/ha, 13 to 15 days): 10
- Plant response rating (0 to 100), Foxtail, Giant (giant foxtail; 125 g ai/ha): 10
- Plant response rating, Foxtail, Giant (giant foxtail; 31 g ai/ha, 13 to 15 days): 10
- Plant response rating, Foxtail, Giant (giant foxtail; 62 g ai/ha): 10
- Plant response rating, Pigweed (pigweed [8]; [19]): 100
- Pigweed plant response rating (pigweed [8]; 500 g ai/ha): 100
- Plant response rating (0 to 100), Oat, Wild (wild oat; 125 g ai/ha, postemergence): 5
- Plant response rating, Oat, Wild (wild oat; [17]): 0
- Plant response rating, Oat, Wild (wild oat; [18]): 0
- Kochia plant response rating (kochia; 16 g ai/ha, 13 to 15 days): 30
- Plant response rating (0 to 100), Kochia (kochia; 125 g ai/ha): 90
- Plant response rating, Kochia (kochia; 31 g ai/ha, 13 to 15 days): 80
- Plant response rating, Kochia (kochia; 62 g ai/ha): 90
- Plant response rating, Crabgrass, Large (large (Lg) crabgrass [9]; [19]): 100
- Crabgrass, Large plant response rating (large (Lg) crabgrass [9]; 500 g ai/ha): 100
